Measured values as given in patent publication US6214821A, “Methods and composition for the inhibition of cancer cells” (Washington State University Research Foundation, priority 1999, dated 2001).
Read-outs that look alike come from different tables or passages of the source.

Key:
[1] = system: DNA damage-dependent G2 -checkpoint; details: cited from earlier work
GI 101A cells [2] = experiment: cells; assay type: cell-based, human; details: Homo sapiens, 24 h
Source text: (§1) . Cell lines and Culture.
(§2) Drugs and Chemical Reagents. […] . […] All other chemicals were reagent grade.
(§3) Drug Treatment and Survival Curves.
(§4) Pharmacol. 28:370-376 (1991). […] .
(§5) Drug Combinations and Data Analysis. […] . Pharmacol. (in press, 1997). […] Enzyme Regul. […] Enzyme Regul. 22:27-55 (1984).
(§6) . […] Enzyme Regul. 22:27-55 (1984).

MDA-231 cells [3] = experiment: cells; assay type: cell-based, human; details: Homo sapiens
Source text: as §1, §2, §3, §4, §5, §6

GI 101A cells [4] = experiment: Flow cytometric cell cycle analysis (propidium iodide); assay type: cell-based, human; details: 100 nM CPT, 24 h
MDA-231 cells [5] = experiment: as above; assay type: cell-based, human; details: 100 nM CPT, 24 h
[6] = system: normal endothelial cells (BVEC); experiment: as above; assay type: cell-based, bovine; details: 100 nM CPT, 24 h
[7] = system: normal bovine venular endothelial cells (BVEC); experiment: cells; details: Bos taurus, Endothelial cell, 24 h, read-out: dose inhibiting growth by 50% (CPT alone)
GI 101A cells [8] = details: cited from earlier work
MDA-231 cells [9] = details: cited from earlier work
p34^cdc2 in HeLa cells = details: CPT treatment; cited from earlier work
CPT-resistant cells = details: low doses of CPT; cited from earlier work
CPT-sensitive cells = details: very high doses of CPT; cited from earlier work
in vivo = details: rat, iv, 10 mg/kg
HMEC/E6 (p53-) = experiment: Crystal violet staining growth inhibition assay, median effect analysis; assay type: cell-based; details: Homo sapiens, 24 hr treatment
Source text: Cytotoxicity and Bromodeoxyuridine incorporation assays. […] Enzyme Regul.

MDA-231 cells [10] = experiment: ELISA BrdU incorporation assay (DNA synthesis); assay type: cell-based, human; details: TPT 10 and 50 nM, 24 hr
MDA-231 cells [11] = experiment: FACS cell cycle / BrdU DNA synthesis assay; assay type: cell-based, human; details: TPT 10, 50, 100 nM, 24 h, FIG. 8A
[12] = system: murine bone marrow cells (CFU-GM); experiment: In vitro bone marrow cell protection assay (CFU-GM colonies); assay type: cell-based, C57/BL mice; details: Mus musculus, 0-1000 nM, combination 1:1 molar ratio
[13] = basic side-chain at position 9 forms salts with acids; cited from earlier work
HMEC (p53+) = experiment: Crystal violet staining growth inhibition assay, median effect analysis; details: Homo sapiens, 24 h, read-out: IC50 HMEC (p53+)
MDA-231 (mutant p53) = experiment: as above; details: Homo sapiens, MDA-MB-231, 24 h, read-out: IC50 MDA-231 (p53-)

In the case of `Cn1c(=O)c2c(ncn2C)n(C)c1=O` [caffeine], the “effect on DNA damage-dependent G2 checkpoint” value [1] is given as “override the DNA damage-dependent G2 -checkpoint and enhance drug-induced cytotoxicity”.

In the case of `CC[C@@]1(O)C(=O)OCc2c1cc1n(c2=O)Cc2cc3ccccc3nc2-1` [CPT, Camptothecin], the IC50 (GI 101A cells [2]; read-out: 50% inhibition of cell growth (CPT alone)) is reported as 0.3 µM, the IC50 (GI 101A cells [2]; read-out: median-effect dose, Dm, for CPT) is reported as 0.104 µM and the IC50 (MDA-231 cells [3]; MDA-MB-231, 24 h, read-out: 50% inhibition of cell growth (CPT alone)) is reported as 0.2 µM. For the same compound, the IC50 (MDA-231 cells [3]; MDA-MB-231, 24 h, read-out: median-effect dose, Dm, for CPT) was 0.028 µM, the IC50 (MDA-231 cells [3]; MDA-MB-231, read-out: IC50 of CPT in the absence of UCN-01 (so in the source)) was 0.005 µM and the “cell cycle effect of CPT alone” value (GI 101A cells [4]) was “caused an arrest of tumor as well as normal cells in S phase”. For the same compound, the “cell cycle effect of CPT alone” value (MDA-231 cells [5]) was “caused an arrest of tumor as well as normal cells in S phase”, the “cell cycle effect of CPT alone” value [6] was “caused an arrest of tumor as well as normal cells in S phase” and the IC50 [7] was greater than 1 µM. For the same compound, the “cell cycle effect of CPT at low and high doses” value (GI 101A cells [8]) was “in the G2 phase while at high doses cells are arrested in the S phase”, the “cell cycle effect of CPT at low and high doses” value (MDA-231 cells [9]) was “in the G2 phase while at high doses cells are arrested in the S phase” and the p34cdc2 activity (p34^cdc2 in HeLa cells) was “loss in activity of p34^cdc2 in HeLa cells”. For the same compound, the 3H-thymidine incorporation (CPT-resistant cells) was “stopped incorporating ^3 H-thymidine”, the 3H-thymidine incorporation (CPT-sensitive cells) was “continued to incorporate ^3 H-thymidine” and the half-life (in vivo; in vivo) was 1.42 h.

With `CC[C@@]1(O)C(=O)OCc2c1cc1n(c2=O)Cc2cc3c(CN(C)C)c(O)ccc3nc2-1` [TPT, (S)-10[(dimethylamino)methyl]-4-ethyl-4,9-dihydroxy-IH-pyrano[3',4': 6,7]ind olizino[1,2-b]quinolone-3,14(4H,12H)-dione] the IC50 (HMEC/E6 (p53-)) was 0.034 µM, the BrdU incorporation (MDA-231 cells [10]) was “stopped incorporating BrdU” and the “cell cycle effect of TPT by itself” value (MDA-231 cells [11]) was “induced an accumulation of MDA-231 cells in S phase”. For the same compound, the IC50 [12] was 0.019 µM, the water solubility [13] was “water-soluble” and the half-life (in vivo; plasma) was 1.53 h. It also gave an IC50 (HMEC (p53+)) of 0.006 µM and an IC50 (MDA-231 (mutant p53)) of 0.037 µM.
